± gives the expanded uncertainty stated by the source.
Assay: mn = molality of the nth substance listed, in mol/kg
Conditions: 101.3 kPa, Liquid; for viscosity: Capillary tube (Ostwald / Ubbelohde) method; for speed of sound: Frequency=4 MHz, Linear variable-path acoustic interferometer; for mass density: Vibrating tube method

N[C@@H](CO)C(=O)O [L-serine] + O
Conditions | mass density [kg/m3] | speed of sound [m/s] | viscosity [mPa·s]
293.15 K, m1 = 0.05002 | 1000.49 ± 0.37 | 1485.7 ± 1.7 | 1.011 ± 0.032
293.15 K, m1 = 0.1001 | 1002.74 ± 0.37 | 1488.9 ± 1.7 | 1.022 ± 0.032
293.15 K, m1 = 0.15 | 1004.96 ± 0.37 | 1492.2 ± 1.7 | 1.034 ± 0.032
293.15 K, m1 = 0.2003 | 1007.18 ± 0.37 | 1495.6 ± 1.7 | 1.046 ± 0.033
293.15 K, m1 = 0.2502 | 1009.36 ± 0.37 | 1499.1 ± 1.7 | 1.058 ± 0.033
293.15 K, m1 = 0.2999 | 1011.52 ± 0.37 | 1502.7 ± 1.8 | 1.069 ± 0.033
298.15 K, m1 = 0.05002 | 999.314 ± 0.37 | 1500.4 ± 1.7 | 0.8972 ± 0.032
298.15 K, m1 = 0.1001 | 1001.55 ± 0.37 | 1503.5 ± 1.8 | 0.907 ± 0.032
298.15 K, m1 = 0.15 | 1003.74 ± 0.37 | 1506.7 ± 1.8 | 0.9165 ± 0.032
298.15 K, m1 = 0.2003 | 1005.94 ± 0.37 | 1510 ± 1.8 | 0.9277 ± 0.032
298.15 K, m1 = 0.2502 | 1008.1 ± 0.37 | 1513.4 ± 1.8 | 0.9379 ± 0.032
298.15 K, m1 = 0.2999 | 1010.23 ± 0.37 | 1516.9 ± 1.8 | 0.9477 ± 0.032
303.15 K, m1 = 0.05002 | 997.896 ± 0.37 | 1512.4 ± 1.8 | 0.8025 ± 0.032
303.15 K, m1 = 0.1001 | 1000.1 ± 0.37 | 1515.4 ± 1.8 | 0.8115 ± 0.032
303.15 K, m1 = 0.15 | 1002.27 ± 0.37 | 1518.5 ± 1.8 | 0.8204 ± 0.032
303.15 K, m1 = 0.2003 | 1004.44 ± 0.37 | 1521.7 ± 1.8 | 0.8295 ± 0.032
303.15 K, m1 = 0.2502 | 1006.56 ± 0.37 | 1525 ± 1.8 | 0.8377 ± 0.032
303.15 K, m1 = 0.2999 | 1008.66 ± 0.37 | 1528.4 ± 1.8 | 0.8466 ± 0.032
308.15 K, m1 = 0.05002 | 996.254 ± 0.37 | 1522.1 ± 1.8 | 0.723 ± 0.032
308.15 K, m1 = 0.1001 | 998.433 ± 0.37 | 1525 ± 1.8 | 0.7313 ± 0.032
308.15 K, m1 = 0.15 | 1000.58 ± 0.37 | 1528 ± 1.8 | 0.7386 ± 0.032
308.15 K, m1 = 0.2003 | 1002.72 ± 0.37 | 1531.1 ± 1.8 | 0.7463 ± 0.032
308.15 K, m1 = 0.2502 | 1004.83 ± 0.37 | 1534.3 ± 1.8 | 0.7535 ± 0.032
308.15 K, m1 = 0.2999 | 1006.92 ± 0.37 | 1537.6 ± 1.8 | 0.7611 ± 0.032
313.15 K, m1 = 0.05002 | 994.421 ± 0.37 | 1531.4 ± 1.8 | 0.6558 ± 0.032
313.15 K, m1 = 0.1001 | 996.578 ± 0.37 | 1534.2 ± 1.8 | 0.6627 ± 0.032
313.15 K, m1 = 0.15 | 998.702 ± 0.37 | 1537.1 ± 1.8 | 0.6688 ± 0.032
313.15 K, m1 = 0.2003 | 1000.82 ± 0.37 | 1540.2 ± 1.8 | 0.6756 ± 0.032
313.15 K, m1 = 0.2502 | 1002.91 ± 0.37 | 1543.3 ± 1.8 | 0.682 ± 0.032
313.15 K, m1 = 0.2999 | 1004.97 ± 0.37 | 1546.6 ± 1.8 | 0.6881 ± 0.032

— the NIST ThermoML archive (doi:10.1016/j.jct.2019.03.039)
